23 molecules from patent US11773127B2, “Compounds and methods for treating bacterial infections” (Washington University, priority 2017, dated 2023) can be followed below.

In the experiment the target is T1, FmlHLD (Escherichia coli, UniProt P77588).
T1 construct: 6xHis (C); made in house; host or cells: E. coli C600, periplasm, pTRC99a
Description: biochemical. The experiment is classed as binding, E. coli. The following applies: for PI100 (percent inhibition): galactoside at 100 μM; for inhibitory potency against FmlH, in words: ELISA-based competition assay. How it is done:
Thereafter, wells were incubated with 200 μl blocking buffer (PBS+1% BSA) for 2 hours at 23° C., followed by incubation with 100 μl biotinylated FmlHLD diluted in blocking buffer to 20 μg/ml in the presence or absence of the tested compounds for 1 hr at 23° C. After washing 3× with PBS+0.05% TWEEN-20, 100 μl Streptavidin-HRP conjugate (BD Biosciences; 1:2000 dilution in blocking buffer) was added to each well for 1 hr at 23° C. After a final round of washing, plates were developed with 100 μl Tetramethylbenzidine (TMB, BD Biosciences) substrate, quenched within 1-2 min with 50 μl […], and absorbance measured at 450 nm.
Select top hit compounds and few low-scoring analogs from the virtual screening, as well as synthetic galactosides, were tested in the ELISA-based competition assay for their ability to inhibit binding of FmlHLD to ds-BSM. The ELISA assay was performed using the protocol described in Example 18. […] All compounds were tested at 100 μM; a subset was tested at 10 μM; and the strongest subset was additionally tested at 1 μM. […] Percent inhibition (PI) values are reported as the mean with standard error of the mean for galactosides tested at 100 μM (PI100), 10 μM (PI10), and 1 μM (PI1) in the ELISA-based competition assay. […] The “thio” designation indicates a sulfur linkage between the sugar and the aglycone group, the “phospho” designation indicates a phosphate group attached the C6-hydroxyl group on the sugar, and the “uro” designation indicates galacturonide as the sugar.
The ELISA assay was performed using the protocol described in Example 18. All compounds were tested at 1 μM and a subset was additionally tested at 100 nM. Average percent inhibition (PI) values are reported for compounds tested at 1 μM (PI1) and 100 nM (PI0.1).
Briefly, 1 μg bovine submaxillary mucin (Sigma) in 100 uL PBS were incubated with Immulon 4HBX 96-well plates overnight prior to treatment with 1 mU Arthrobacter ureafaciens sialidase for 1 hour at 37° C. to remove terminal sialic acid sugars. Wells were then blocked with 200 μL PBS+1% BSA for 2 hours at room temperature. Biotinylated FmlH^LD was diluted to 20 μg/mL in blocking buffer and incubated in the presence or absence of compounds serially diluted 2× down eight rows for 1 hour at room temperature. Wells were washed three times with PBS 0.05% TWEEN-20 then incubated with 100 μL of streptavidin-HRP conjugate (BD Biosciences; 1:2,000 dilution in blocking buffer) for one hour. After three additional PBS+0.05% TWEEN washes, plates were developed with 100 μL of tetramethylbenzidine (BD Biosciences) substrate and quenched with 50 μL of 1 M H2SO4. Total bound portion concentration was measured by the absorbance at 450 nm. IC50s were determined using the Graphpad Prism software.
The compounds synthesized herein were tested in the ELISA-based competition assay for their ability to inhibit binding of FmlHLD to ds-BSM. The ELISA assay was performed using the protocol described in Example 18. Compounds were tested at […], 1 μM, and 100 nM. as indicated on the table. […] ND means the corresponding value was not determined for this summary (but may be available elsewhere in the Examples).
On the technique in general: An ELISA detects its analyte on a solid surface through an enzyme-linked reagent.

The mark [1] stands for this setting: IC50, inhibition of FmlHLD binding to ds-BSM.
Where [2] appears, read: IC50 (μM), Table 5, Gal and GalNAc inhibition of FmlH.
Setting [3] is: mean with standard error of the mean.
The mark [4] stands for this setting: read-out: % Inhibition at [μM] [100], compound at 100 μM, inhibition of FmlHLD binding to ds-BSM.
Setting [5] is: read-out: PI100 (percent inhibition), galactoside at 100 μM, mean with standard error of the mean.
Setting [6] is: read-out: % Inhibition at [μM] [0.1], compound at 0.1 μM (100 nM), inhibition of FmlHLD binding to ds-BSM.
The mark [7] stands for this setting: read-out: % Inhibition at [μM] [1], compound at 1 μM, inhibition of FmlHLD binding to ds-BSM.
Setting [8] is: read-out: PI (0.1) (average percent inhibition), compound at 100 nM, Table 4.
[9] abbreviates: read-out: PI(1) (average percent inhibition), compound at 1 μM, Table 4.
Setting [10] is: IC50 (μM), Table 6, sulfonamides 3078-3090.
Setting [11] is: read-out: % Inhibition at [μM] [10], compound at 10 μM, inhibition of FmlHLD binding to ds-BSM.

A word on the IC50: it is the point on the concentration scale where inhibition reaches its midpoint. Low values mean higher potency, high ones lower potency. Broadly, the inhibition is the relative decrease from the control value, in per cent.

Where two headings read alike, the source gives them in different places.

T1 sequence (P77588 25-182): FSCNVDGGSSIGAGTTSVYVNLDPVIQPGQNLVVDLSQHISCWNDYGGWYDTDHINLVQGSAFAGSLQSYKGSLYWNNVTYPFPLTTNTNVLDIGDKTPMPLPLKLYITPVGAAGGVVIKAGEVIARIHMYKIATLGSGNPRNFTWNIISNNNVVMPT

Under setting [1], `O=[N+]([O-])c1cccc(-c2ccccc2O[C@@H]2O[C@H](CO)[C@H](O)[C@H](O)[C@H]2O)c1` [AM3049] came in with an IC50 of 15 µM.

As for `CC(=O)N[C@H]1[C@H](Oc2ccccc2-c2cccc(NS(=O)(=O)C(F)(F)F)c2)O[C@H](CO)[C@H](O)[C@@H]1O` [Compound 3049, N-((2S,3R,4R,5R,6R)-4,5-dihydroxy-6-(hydroxymethyl)-2-((3′-((trifluoromethyl)sulfonamido)-[1,1′-biphenyl]-2-yl)oxy)tetrahydro-2H-pyran-3-yl) acetamide], inhibition under setting [2] was half-maximal at 1.17 µM (IC50). Turning to `O=[N+]([O-])c1ccc(O[C@@H]2O[C@H](CO[C@@H]3O[C@H](CO)[C@H](O)[C@H](O)[C@H]3O)[C@H](O)[C@H](O)[C@H]2O)cc1` [Compound 35, p-nitrophenyl Gal-β1-6-Gal, reference compound], the “PI100 (percent inhibition)” value under setting [3] was 19.4 ± 1.6%. For `N#Cc1ccccc1O[C@H]1O[C@H](CO)[C@H](O)[C@H](O)[C@H]1O` [Compound 137a], the inhibition at 100 µM under setting [4] worked out at 17.8%. On to `CC(C)S[C@@H]1O[C@H](CO)[C@H](O)[C@H](O)[C@H]1O` [36β-thio (IPTG), reference compound], for which the inhibition at 100 µM under setting [5] is 23.7 ± 5.3%. For `CC(=O)N[C@H]1[C@H](Oc2ccccc2-c2cccc(S(C)(=O)=O)c2)O[C@H](CO)[C@H](O)[C@@H]1O` [AM2059, N-((2S,3R,4R,5R,6R)-4,5-dihydroxy-6-(hydroxymethyl)-2-((3′-(methylsulfonyl)-[1,1′-biphenyl]-2-yl)oxy)tetrahydro-2H-pyran-3-yl)acetamide], the “inhibitory potency against FmlH, in words” value is reported as “equal or slightly reduced potency”. The molecule also came in with an IC50 under setting [2] of 0.7 µM. For the same molecule, the inhibition at 0.1 µM under setting [6] turned out to be 0.1%. The inhibition at 1 µM under setting [7] was 23.3%. For the same molecule, the inhibition at 0.1 µM under setting [8] turned out to be 0.1%. For the same molecule, the inhibition at 1 µM under setting [9] came to 23.3%. For `CC(=O)N[C@H]1[C@H](Oc2cccc([N+](=O)[O-])c2-c2cccc(NS(C)(=O)=O)c2)O[C@H](CO)[C@H](O)[C@@H]1O` [Compound 3078, N-((2S,3R,4R,5R,6R)-4,5-dihydroxy-6-(hydroxymethyl)-2-((3′-(methylsulfonamido)-6-nitro-[1,1′-biphenyl]-2-yl)oxy)tetrahydro-2H-pyran-3-yl)acetamide], under setting [10], the IC50 amounted to 0.11 µM.

With `O=[N+]([O-])c1ccc(O[C@@H]2O[C@H](CO)[C@H](O)[C@H](O)[C@H]2O)cc1` [p-Nitrophenyl Gal, reference compound], the inhibition at 10 µM under setting [11] worked out at 13.7%. In addition, the inhibition at 100 µM under setting [4] was determined as 78.1%. Consider `CC(=O)N[C@H]1[C@H](Oc2cccc(C)c2-c2cccc(NS(=O)(=O)N(C)C)c2)O[C@H](CO)[C@H](O)[C@@H]1O` [AM2152], for which the IC50 under setting [1] is 0.13 µM. In other words, the sub-micromolar range. In the case of `OC[C@H]1O[C@@H](Oc2ccc(-c3ccccc3)cc2)[C@H](O)[C@@H](O)[C@H]1O` [Compound 32β, [1,1′-biphenyl]-4-yl α/β-D-galactopyranoside], the inhibition at 100 µM under setting [5] was determined as 30%. Under setting [1], `CC(=O)N[C@H]1[C@H](Oc2cccc(C)c2-c2cccc(NS(C)(=O)=O)c2)O[C@H](CO)[C@H](O)[C@@H]1O` [AM2110] had an IC50 of 0.122 µM. Regarding `Cc1c(C)c2ccc(O[C@@H]3O[C@H](CO)[C@H](O)[C@H](O)[C@H]3O)cc2oc1=O` [Compound D715-0293, reference compound], the inhibition at 1 µM under setting [7] worked out at 10.2%. The inhibition at 10 µM under setting [11] worked out at 19.8%. In addition, the inhibition at 100 µM under setting [4] is 89.2%.

For the molecule `CC(=O)N[C@@H]1[C@@H](O)[C@@H](O)[C@@H](CO)O[C@H]1N(CC(=O)NC(C)(C)C)C(=O)c1cccc2cccnc12` [AM1165, N-((2R,3R,4R,5R,6R)-3-acetamido-4,5-dihydroxy-6-(hydroxymethyl)tetrahydro-2H-pyran-2 yl)-N-(2-“(tert-butylamino)-2-oxoethyl)quinoline-8-carboxamide], the inhibition at 1 µM by setting is: under setting [7], 5.57%; under setting [9], 5.57%. For `CC(=O)N[C@H]1[C@H](Oc2ccc3cnccc3c2)O[C@H](CO)[C@H](O)[C@@H]1O` [AM2007, N-((2S,3R,4R,5R,6R)-4,5-dihydroxy-6-(hydroxymethyl)-2-(isoquinolin-6-yloxy)tetrahydro-2H-pyran-3-yl)acetamide], the inhibition at 1 µM came to 12.6% under setting [7] and 12.6% under setting [9]. As to `O=C(O)c1cccc(-c2ccccc2O[C@H]2O[C@H](CO)[C@H](O)[C@H](O)[C@H]2O)c1` [Compound 29α, 2′-(α/β-D-galactopyranosyloxy)-[1,1′-Biphenyl]-3-carboxylic acid], under setting [5], the inhibition at 100 µM is 26.2 ± 5.9%. `COc1cccc(O[C@@H]2OC(CO)[C@H](O)[C@H](O)[C@@H]2NC(C)=O)c1-c1cccc(NS(C)(=O)=O)c1` (stereo partly drawn) [Compound 3083, N-((2S,3S,4R,5R)-4,5-dihydroxy-6-(hydroxymethyl)-2-((6-methoxy-3′-(methylsulfonamido)-[1,1′-biphenyl]-2-yl)oxy)tetrahydro-2H-pyran-3-yl)acetamide]: the IC50 under setting [10] is 0.15 µM. That is a sub-micromolar value. Regarding `CC(C)S[C@@H]1O[C@H](CO)[C@H](O)[C@H](O)[C@H]1O` [IPTG, isopropyl β-thiogalactoside, reference compound], the inhibition at 100 µM under setting [4] was found to be 23.7%. The “inhibition of FmlHLD binding to ds-BSM, in words” value (soluble compound at 100 μM (0.1 mM)) was “minor inhibitory activity”. Regarding `Nc1ccc(O[C@@H]2O[C@H](CO)[C@H](O)[C@H](O)[C@H]2O)cc1` [Compound 10β], under “mean with standard error of the mean, 100 µM”, the “PI100 (percent inhibition)” value was 65.1 ± 1.4%. Besides, where the note is “read-out: PI10 (percent inhibition), galactoside at 10 μM, mean with standard error of the mean”, the inhibition at 10 µM turned out to be 9.8 ± 3.9%. For the same molecule, under setting [5], the inhibition at 100 µM was found to be 65%. On to `CS(=O)(=O)Nc1cccc(-c2ccccc2O[C@@H]2O[C@H](CO)[C@H](O)[C@H](O)[C@H]2O)c1` [AM2043, N-(2′-(((2S,3R,4S,5R,6R)-3,4,5-trihydroxy-6-(hydroxymethyl)tetrahydro-2H-pyran-2-yl)oxy)-[1,1′-biphenyl]-3-yl)methanesulfonamide], for which the “inhibitory potency against FmlH, in words” value is given as “loss in activity relative to 29β-NAc”. Also, the IC50 under setting [2] amounted to 1.11 µM. The molecule also gave a 50% inhibitory concentration (IC50) under setting [1] of 1.11 µM. Moreover, under setting [6], the inhibition at 0.1 µM worked out at 1.6%. The inhibition at 1 µM under setting [7] was determined as 49.8%. Also, the inhibition at 0.1 µM under setting [8] amounted to 1.6%. Besides, the inhibition at 1 µM under setting [9] was found to be 49.8%. With `OC[C@H]1O[C@H](Oc2ccc(-c3ccccc3)cc2)[C@H](O)[C@@H](O)[C@H]1O` [Compound 114bf1], the inhibition at 10 µM under setting [11] came to 22.6%. Also, the inhibition at 100 µM under setting [4] was found to be 86.5%. `CC(=O)N[C@H]1[C@H](Oc2ccc3ccncc3c2)O[C@H](CO)[C@H](O)[C@@H]1O` [AM2002, N-((2S,3R,4R,5R,6R)-4,5-dihydroxy-6-(hydroxymethyl)-2-(isoquinolin-7-yloxy)tetrahydro-2H-pyran-3-yl)acetamide]: the inhibition at 1 µM reads like this: under setting [7], 20.2%; under setting [9], 20.2%. Take `CC(=O)N[C@H]1[C@H](Oc2ccc([N+](=O)[O-])cc2)O[C@H](CO)[C@@H](O)[C@@H]1O[C@@H]1O[C@H](CO)[C@H](O)[C@H](O)[C@H]1O` [Compound 34, p-nitrophenyl Gal-β1-3-GlcNAc, reference compound]: the “PI100 (percent inhibition)” value under setting [3] is recorded as −3.6 ± 1.0%.

Consider `Cc1ccccc1O[C@H]1O[C@H](CO)[C@H](O)[C@H](O)[C@H]1O` [Compound 135a], for which, under setting [4], the inhibition at 100 µM is 30%.
